Measured values: patent US20220395500A1, “SMALL MOLECULE ACTIVATORS OF INTERFERON REGULATORY FACTOR 3 AND METHODS OF USE THEREOF” (Neuralexo, Inc., priority 2020, published 2022)
pEC50: −log10 of the molar value. Where two headings read alike, the source gives them in different places.

Experiments:
[1] = system: IRF-Lucia luciferase reporter (ISRE) in THP1-Dual cells; assay: THP1-Dual IRF-Lucia luciferase reporter assay (ISRE activation); format: cell-based, human; conditions: for pEC50: Homo sapiens, THP1-Dual, read-out: THP1 IRF EC50; for Average ISRE/NFκB (Range) / Average ISRE % Activation: human THP1 pilot screen, 10 μM, 3 screens; for Average ISRE % Activation: 24 hours, percent of LPS activation signal +/− SD
Protocol: THP1 Dual (InvivoGen) cell suspensions were cultured in RPMI 1640 (Hyclone, Logan, Utah) supplemented with 10% fetal bovine serum (Hyclone), 100 U/mL Normocin (Invivogen), and 50 U/mL PenStrep (Gibco, Dublin, Ireland) between a density of 7·10^5-2·10^6 cells/mL. Every other passage, media was supplemented with 5 U/mL Blasticidin and 100 U/mL Zeocin to maintain the expression constructs. White, flat-bottom 384-well plates (Greiner, Kremsmunster, Austria, 781080) were seeded with 2.5·10^4 cells/well in a total of 50 μL media containing 5 ng/mL phorbolmyristic acid (PMA) using a Matrix WellMate (Thermo Scientific) dispenser. After 48 hours of incubation at 37° C., media was removed using a BioTek ELx405 CW plate washer set to aspirate and wash each well three times with 65 μL 1×PBS. Plates were reloaded with 50 μL media without PMA and treatments added. Lipopolysaccharide in dimethylsulfoxide (DMSO) was transferred to control wells using a HP D300 microdispenser to a final concentration of 313 ng/mL. Compounds from chemical library plates were copied using a Sciclone (Caliper LifeSciences) mounted with a 384-pin transfer tool to obtain a final concentration of 10 μM. After incubation with treatments for 24 hours, 10 μL of supernatant media from each well was transferred into a white, flat-bottom 384-well plate for luminescence readout and a black-walled, clear flat-bottom 384-well plate for absorbance readout.
Specifically, to enable screening of novel chemical entities (NCEs) in a larger screening effort, a robust high-throughput cell-based assay system for primary hit identification of ISRE activators based on the above-mentioned target validation was desired. Human ISRE activity was verified using a THP-1 monocyte line containing the NF-κB-SEAP and IRF-Lucia luciferase dual reporter (THP1-Dual; Invivogen) that features two reporter genes, SEAP (secreted embryonic alkaline phosphatase) and Lucia luciferase, thereby enabling the simultaneous study of the NF-κB and IRF signalling pathways. The Lucia luciferase reporter is under the control of an ISG54 (interferon-stimulated gene) minimal promoter in conjunction with five IFN-stimulated response elements. The SEAP gene is driven by an IFN-β minimal promoter fused to five copies of the NF-κB consensus transcriptional response element and three copies of the c-Rel binding site. Both reporter proteins are readily measurable in the cell culture supernatant when using QUANTI-LUC™ and QUANTI-Blue SEAP detection reagents.
The responsiveness of the human THP-1 Dual cell line was evaluated in an array of assay conditions to obtain sensitive and reproducible results for the activation of IRF and NF-κB reporters. […] All transfer steps are fully automated using high throughput robotic equipment. Briefly, cells are seeded in differentiation medium using a Matrix WellMate fitted with the WellMate Stacker (Thermo Scientific) and incubated at 37° C. with 5% CO2 for 48 h. Following differentiation, cells are washed using a BioTek ELx405 Select CW plate washer and growth medium added with the Matrix WellMate. Programmed control treatments are added to wells using a D300 digital dispenser fitted with T8+ dispense heads (Hewlett Packard) designed to dispense nanoliter quantities of material. Compounds from library plates are added using a pin tool fitted to a Sciclone ALH 3000 Workstation (Caliper Life Sciences) programmed with Maestro v4.4. After treatment, plates are returned to incubators for 24 hours. To measure reporter expression, supernatant is collected using the Sciclone and dispensed into 2 plates: 1) a white 384-well assay plate for Lucia luminescence measurements and 2) a clear-bottom black 384-well assay plate for SEAP absorbance measurements.

[2] = J774-Dual cytotoxicity; format: cell-based, mouse; conditions: mouse, J774-Dual cells, read-out: J774 cytotox CC50
Protocol: The OTRADI Small Molecule Library of approximately 246,000 diverse compounds (see below for description) was screened using the THP1-Dual based HTS platform described above. All transfer steps in the screen are fully automated, thus reducing variability. Primary screening included a single data point or dose for each molecule. After data normalization was applied for each assay run, “hit” selection was performed on the plates that pass the quality control (QC) criterion. Hits were defined as samples having values above the activity cutoff determined based on noise level of the assay to reduce false positive rates. […] The ratio of ISRE:NFκB activity was also calculated as a selectivity index for prioritizing hit selection. Primary hits underwent secondary screening to determine the 50% effective concentration (EC50) and 50% cytotoxic concentration (CC50) of these agents using an 8-point dose-response curve in the human THP1-Dual cells. Cytotoxicity was measured in the plate using Cell Titer Glo (Promega). Identified candidate compounds were further screened (orthogonal screen) for cross species activity in the validated mouse J774-Dual assay using an 8-point dose-response format to determine EC50 and CC50 values as well as ISRE:NFκB ratios. A general process flow for the experimental design laid out above is depicted at FIG. 12.

[3] = THP1-Dual cytotoxicity (Cell Titer Glo, ATP); format: cell-based, human; conditions: human, THP1-Dual cells, read-out: Thp1 cytotox CC50
Excerpt: FIG. 9C is a CC50 (50% cytotoxic concentration) graph of AV-C dependent IRF activation in THP1-Dual cells, determined with an 8-point dose response experiment. Cell viability was monitored based on quantitation of ATP present, as an indicator of metabolically active cells, where luminescence is proportional to the amount of ATP present, using Cell-Titer Glo (Promega).
The OTRADI Small Molecule Library of approximately 246,000 diverse compounds (see below for description) was screened using the THP1-Dual based HTS platform described above. All transfer steps in the screen are fully automated, thus reducing variability. Primary screening included a single data point or dose for each molecule. After data normalization was applied for each assay run, “hit” selection was performed on the plates that pass the quality control (QC) criterion. Hits were defined as samples having values above the activity cutoff determined based on noise level of the assay to reduce false positive rates. In the pilot study discussed above this activity value was >3σ above the ISRE mean with the added criteria of NFκB activation being lower than […] from the mean to identify IRF selective compounds. The ratio of ISRE:NFκB activity was also calculated as a selectivity index for prioritizing hit selection. Primary hits underwent secondary screening to determine the 50% effective concentration (EC50) and 50% cytotoxic concentration (CC50) of these agents using an 8-point dose-response curve in the human THP1-Dual cells. Cytotoxicity was measured in the plate using Cell Titer Glo (Promega). Identified candidate compounds were further screened (orthogonal screen) for cross species activity in the validated mouse J774-Dual assay using an 8-point dose-response format to determine EC50 and CC50 values as well as ISRE:NFκB ratios. A general process flow for the experimental design laid out above is depicted at FIG. 12.

[4] = Human Reporter Cell Line, 8-point dose response

Molecule: CC(C)c1ccc(C(=O)Nc2ccc(N3CCN(C(=O)c4ccco4)CC3)cc2)cc1 [NA-4]
- pEC50 [1, 4]: ~4.88
- CC50 ([2]; Mouse Reporter Cell Line): > 25 µM
- CC50 ([3]; Human Reporter Cell Line): 37.8 µM

Molecule: O=C(Nc1ccc(N2CCN(C(=O)c3cccs3)CC2)cc1)c1ccc2cc(Br)ccc2c1 [NA-17]
- pEC50 [1, 4]: 5.62
- CC50 ([2]; Mouse Reporter Cell Line): > 25 µM
- CC50 ([3]; Human Reporter Cell Line): 14.6 µM

Molecule: O=C(Nc1ccc(N2CCN(C(=O)c3cccs3)CC2)cc1)c1ccc(Br)c2ncccc12 [NA-18]
- pEC50 [1, 4]: 5.51
- CC50 ([2]; Mouse Reporter Cell Line): > 25 µM
- CC50 ([3]; Human Reporter Cell Line): > 25 µM

Molecule: O=C(Nc1ccc(N2CCN(C(=O)c3cccs3)CC2)cc1)c1cc(Cl)ccc1Cl [NA-43]
- pEC50 [1, 4]: ~4.97
- CC50 ([2]; Mouse Reporter Cell Line): > 25 µM
- CC50 ([3]; Human Reporter Cell Line): > 25 µM

Molecule: COc1ccc(C(=O)Nc2ccc(N3CCN(C(=O)c4cccs4)CC3)cc2)cc1[N+](=O)[O-] [NA-46]
- pEC50 [1, 4]: 6.96
- CC50 ([2]; Mouse Reporter Cell Line): > 25 µM
- CC50 ([3]; Human Reporter Cell Line): > 25 µM

Molecule: COC(=O)c1ccc(N2CCN(C(=O)c3cccs3)CC2)cc1 [NA-47]
- pEC50 [1, 4]: 6.45
- CC50 ([2]; Mouse Reporter Cell Line): > 25 µM
- CC50 ([3]; Human Reporter Cell Line): > 25 µM

Molecule: O=C(Nc1ccc(N2CCN(C(=O)c3ccccc3)CC2)cc1)c1ccc(OCc2ccccc2)cc1 [NA-51]
- pEC50 [1, 4]: ~5.58
- CC50 ([2]; Mouse Reporter Cell Line): > 25 µM
- CC50 ([3]; Human Reporter Cell Line): 11.3 µM

Molecule: Cc1ccccc1C(=O)N1CCN(c2ccc(NC(=O)c3ccc(OCc4ccccc4)cc3)cc2)CC1 [NA-52]
- pEC50 [1, 4]: 5.85
- CC50 ([2]; Mouse Reporter Cell Line): > 25 µM
- CC50 ([3]; Human Reporter Cell Line): > 25 µM

Molecule: O=C(Nc1ccc(N2CCN(C(=O)c3cccs3)CC2)cc1)c1ccc(OCc2cccnc2)cc1 [NA-61]
- pEC50 [1, 4]: 5.64

Molecule: COc1ccc(C(=O)Nc2nc(-c3cc4ccccc4oc3=O)co2)c2ccccc12 [ND-18]
- pEC50 ([1]; Human Reporter Cell Line THP1): 4.87

Molecule: O=C(Nc1nc(-c2cc3ccccc3oc2=O)cs1)c1ccc(OCc2ccccc2)cc1 [ND-22]
- pEC50 ([1]; Human Reporter Cell Line THP1): 5.42
- CC50 ([3]; Human Reporter Cell Line THP1): 9.79 µM

Molecule: Cc1ccc(-c2nc3cc(C(C)C)ccc3o2)cc1[N+](=O)[O-] [ND-57]
- CC50 ([2]; Mouse Reporter Cell Line J774): > 25 µM
- CC50 ([3]; Human Reporter Cell Line THP1): > 25 µM

Molecule: Cc1cc2nc(-c3ccc(C)c(N)c3)oc2cc1C [ND-59]
- CC50 ([2]; Mouse Reporter Cell Line J774): > 25 µM
- CC50 ([3]; Human Reporter Cell Line THP1): > 25 µM

Molecule: CCOC(=O)C1=CCCC[C@H]1S(=O)(=O)Nc1ccc(F)cc1Cl [ND-72]
- CC50 ([2]; Mouse Reporter Cell Line J774): > 25 µM
- CC50 ([3]; Human Reporter Cell Line THP1): > 25 µM

Molecule: ClCCCOc1ccc(-c2nc3ccc(OCCCCl)cc3o2)cc1 [ND-73]
- CC50 ([2]; Mouse Reporter Cell Line J774): > 25 µM
- CC50 ([3]; Human Reporter Cell Line THP1): > 25 µM

Molecule: Cc1cc2nc(-c3ccc(C)c(NC(=O)c4ccc(C(F)(F)F)c([N+](=O)[O-])c4)c3)oc2cc1C [ND-75]
- CC50 ([2]; Mouse Reporter Cell Line J774): > 25 µM
- CC50 ([3]; Human Reporter Cell Line THP1): > 25 µM

Molecule: CC1=NN(c2ccccc2)C(=O)C1 [ND-77]
- CC50 ([2]; Mouse Reporter Cell Line J774): > 25 µM
- CC50 ([3]; Human Reporter Cell Line THP1): > 25 µM

Molecule: COc1ccc(C(=O)Nc2ccc(OC)cc2OC)cc1 [ND-78]
- CC50 ([2]; Mouse Reporter Cell Line J774): > 25 µM
- CC50 ([3]; Human Reporter Cell Line THP1): > 25 µM

Molecule: Cc1ccc(-c2nc3cc(OCCCN4CCCC4)ccc3o2)cc1[N+](=O)[O-] [ND-83]
- CC50 ([2]; Mouse Reporter Cell Line J774): > 25 µM
- CC50 ([3]; Human Reporter Cell Line THP1): > 25 µM

Molecule: Cc1ccc(-c2nc3cc(O)ccc3o2)cc1[N+](=O)[O-] [ND-85]
- CC50 ([2]; Mouse Reporter Cell Line J774): > 25 µM
- CC50 ([3]; Human Reporter Cell Line THP1): > 25 µM

Molecule: COc1ccc(C(=O)Nc2cc(-c3nc4ccccc4s3)ccc2C)cc1C(F)(F)F [ND-87]
- CC50 ([2]; Mouse Reporter Cell Line J774): > 25 µM
- CC50 ([3]; Human Reporter Cell Line THP1): 3.02 µM

Molecule: COc1ccc(C(=O)Nc2cccc(-c3nc4ccccc4s3)c2C)cc1[N+](=O)[O-] [ND-90]
- CC50 ([2]; Mouse Reporter Cell Line J774): > 25 µM
- CC50 ([3]; Human Reporter Cell Line THP1): > 25 µM

Molecule: CN(C)CCCOc1ccc(-c2nc3cc(OCCCN4CCCC4)ccc3o2)cc1 [ND-93]
- CC50 ([2]; Mouse Reporter Cell Line J774): > 25 µM
- CC50 ([3]; Human Reporter Cell Line THP1): > 25 µM

Molecule: CC(C)CC(=O)c1c(C(C)C)nn2ccccc12 [ND-97]
- CC50 ([2]; Mouse Reporter Cell Line J774): > 25 µM
- CC50 ([3]; Human Reporter Cell Line THP1): > 25 µM

Molecule: Cc1ccc(-c2nc3cc(Cl)ccc3o2)cc1NC(=O)/C=C/c1cccc([N+](=O)[O-])c1 [ND-99]
- CC50 ([2]; Mouse Reporter Cell Line J774): > 25 µM
- CC50 ([3]; Human Reporter Cell Line THP1): > 25 µM

Molecule: O=c1cc(NC[C@H](O)[C@H](O)[C@H](O)CO)[nH]c(=O)[nH]1 [ND-100]
- CC50 ([2]; Mouse Reporter Cell Line J774): > 25 µM
- CC50 ([3]; Human Reporter Cell Line THP1): > 25 µM

Molecule: COc1ccc(S(=O)(=O)Nc2cc(-c3nc4cc(C)c(C)cc4o3)ccc2C)cc1[N+](=O)[O-] [ND-107]
- CC50 ([2]; Mouse Reporter Cell Line J774): > 10 µM
- CC50 ([3]; Human Reporter Cell Line THP1): > 10 µM

Molecule: Cc1cc2nc(-c3c[nH]c4ccccc34)oc2cc1C [ND-108]
- CC50 ([2]; Mouse Reporter Cell Line J774): > 10 µM
- CC50 ([3]; Human Reporter Cell Line THP1): > 10 µM

Molecule: COC1=CC(=O)C(O)=C/C1=C\C=C\c1ccccc1 [OTR-0001624-001 (Obtusaquinone), Obtusaquinone, reference compound]
- Average ISRE/NFκB (Range) [1]: 0.2 (0.2-0.3)
- Average ISRE % Activation [1]: 1.7 +/− 0.6%

Molecule: CCN(CC)CCCC(C)Nc1c2ccc(Cl)cc2nc2ccc(OC)cc12.Cl.Cl (stereo not shown) [Quinacrine Hydrochloride, reference compound]
- Average ISRE/NFκB (Range) [1]: 1.4 (1.0-2.0)
- Average ISRE % Activation [1]: 5.7 +/− 2.9%

Molecule: Methapyrilene Hydrochloride [reference compound]
- Average ISRE/NFκB (Range) [1]: 1.4 (0.4-2.3)
